Measurements from patent US9745328B2, “Flap modulators” (JANSSEN PHARMACEUTICA NV, priority 2013, dated 2017).
Counter-ions that a name gives are not always drawn.

Target: human FLAP (Homo sapiens (Human), UniProt P20292)
Experiment: FLAP binding assay (HTRF format)
Settings: Table 6 (additional runs), human FLAP wild type
How it was run: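 Read-out is the HTRF ratio. Each reported figure averages two assay plates on which samples were tested in duplicate.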

Sequence of human FLAP (P20292 whole entry): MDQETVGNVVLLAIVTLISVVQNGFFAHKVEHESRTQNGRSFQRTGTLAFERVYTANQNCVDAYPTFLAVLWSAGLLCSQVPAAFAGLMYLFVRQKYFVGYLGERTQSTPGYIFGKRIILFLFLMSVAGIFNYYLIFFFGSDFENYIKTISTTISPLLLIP

| Structure (SMILES) | Ki [nM] |
| --- | --- |
| C[C@H](CO)NS(=O)(=O)c1ccccc1-c1ccc(-c2cnc3c(c2)OCCN3)c(F)c1 [Example 390, 4′-(3,4-Dihydro-2H-pyrido[3,2-b][1,4]oxazin-7-yl)-3′-fluoro-N-[(1R)-2-hydroxy-1-methylethyl]biphenyl-2-sulfonamide] | 0.4 |
| O=S1(=O)CCN(S(=O)(=O)c2ccccc2-c2ccc(-c3cnc4c(c3)OCCN4)c(F)c2)CC1 [Example 392] | 0.9 |

Same assay, conditions: human FLAP wild type, Table 6 (additional runs)

| Structure (SMILES) | Ki [nM] |
| --- | --- |
| Fc1cc(-c2cccnc2OCC2CC2)ccc1-c1cnc2[nH]ccc2n1 [Example 400, 2-{4-[2-(Cyclopropylmethoxy)pyridin-3-yl]-2-fluorophenyl}-5H-pyrrolo[2,3-b]pyrazine] | 14.1 |
| Nc1cnc(-c2ccc(-c3cccnc3OC3CCCCC3)cc2F)cn1 [Example 403, 5-{4-[2-(Cyclohexyloxy)pyridin-3-yl]-2-fluorophenyl}pyrazin-2-amine] | 69.8 |
| N#Cc1nc(-c2ccc(-c3ccccc3S(=O)(=O)NCCO)cc2F)cnc1N [Example 413, 4′-(5-Amino-6-cyanopyrazin-2-yl)-3′-fluoro-N-(2-hydroxyethyl)biphenyl-2-sulfonamide] | 18.6 |
| N#Cc1nc(-c2ccc(-c3ccccc3S(=O)(=O)N3CCNC(=O)C3)cc2F)cnc1N [Example 414, 3-Amino-6-{3-fluoro-2′-[(3-oxopiperazin-1-yl)sulfonyl]biphenyl-4-yl}pyrazine-2-carbontrile] | 65.5 |
| CC(C)(C)NS(=O)(=O)c1ccccc1-c1ccc(-c2cnc3ncccc3c2)c(F)c1 [Example 419, N-tert-Butyl-3′-fluoro-4′-(1,8-naphthyridin-3-yl)biphenyl-2-sulfonamide] | ~1370 |
| CC(C)(C)NS(=O)(=O)c1ccccc1-c1ccc(-c2ccc3[nH]ccc3c2)c(F)c1 [Example 421, N-tert-Butyl-3′-fluoro-4′-(1H-indol-5-yl)biphenyl-2-sulfonamide] | 28.3 |
| CC(C)(C)NS(=O)(=O)c1ccccc1-c1ccc(-c2cnc3cc[nH]c3c2)c(F)c1 [Example 425, N-tert-Butyl-3′-fluoro-4′-(1H-pyrrolo[3,2-b]pyridin-6-yl)biphenyl-2-sulfonamide] | 2.3 |
| CC(C)(C)NS(=O)(=O)c1ccccc1-c1ccc(-c2ccc(N)cn2)c(F)c1 [Example 427, 4′-(5-Aminepyridin-2-yl)-N-tert-butyl-3′-fluoro-biphenyl-2-sulfonamide] | 43.9 |
| CC(C)(C)NS(=O)(=O)c1ccccc1-c1ccc(-c2cnc(N)c(F)c2)c(F)c1 [Example 430, 4′-(6-Amino-5-fluoropyridin-3-yl)-N-tert-butyl-3′-fluorobiphenyl-2-sulfonamide] | 5.1 |
| CC(C)(C)NS(=O)(=O)c1ccccc1-c1ccc(-c2cnc3c(c2)CCN3)c(F)c1 [Example 431, N-tert-Butyl-4′-(2,3-dihydro-1H-pyrrolo[2,3-b]pyridin-5-yl)-3′-fluorobiphenyl-2-sulfonamide] | 0.8 |
| COc1nc(-c2ccc(-c3ccccc3S(=O)(=O)NC(C)(C)C)cc2F)cnc1N [Example 433, 4′-(5-Amino-6-methoxypyrazin-2-yl)-N-tert-butyl-3′-fluorobiphenyl-2-sulfonamide] | 1.1 |
| CC(C)(C)NS(=O)(=O)c1ccccc1-c1ccc(-c2cnc(N)c(C#N)n2)c(F)c1 [Example 434, 4′-(5-Amino-6-cyanopyrazin-2-yl)-N-tert-butyl-3′-fluorobiphenyl-2-sulfonamide] | 1.1 |
| CC(C)(C)NS(=O)(=O)c1ccccc1-c1ccc(-c2nnc(N)s2)c(F)c1 [Example 438, 4′-(5-amino-1,3,4-thiadiazol-2-yl)-N-(tert-butyl)-3′-fluoro-[1,1′-biphenyl]-2-sulfonamide] | 0.7 |
| CC(C)(C)NS(=O)(=O)c1ccccc1-c1ccc(-c2cnc(N)c(Br)n2)c(F)c1 [Example 442, 4′-(5-Amino-6-bromopyrazin-2-yl)-N-tert-butyl-3′-fluorobiphenyl-2-sulfonamide] | 0.9 |
| Cc1nc(-c2ccc(-c3ccccc3S(=O)(=O)NC(C)(C)C)cc2F)cnc1N [Example 445, 4′-(5-Amino-6-methylpyrazin-2-yl)-N-tert-butyl-3′-fluorobiphenyl-2-sulfonamide] | 0.5 |
| Cc1nc(-c2ccc(-c3ccccc3S(N)(=O)=O)cc2F)cnc1N [Example 446, 4′-(5-Amino-6-methylpyrazin-2-yl)-3′-fluorobiphenyl-2-sulfonamide] | 304 |
| CC(C)(C)NS(=O)(=O)c1ccccc1-c1ccc(-c2cnc(N)c(Cl)c2)c(F)c1 [Example 451, 4′-(6-Amino-5-chloropyridin-3-yl)-N-tert-butyl-3′-fluorobiphenyl-2-sulfonamide trifluoroacetic acid salt] | 2.4 |
| CC(C)(C)NS(=O)(=O)c1ccccc1-c1ccc(-c2cnc3[nH]cc(CO)c3c2)c(F)c1 [Example 455, N-tert-Butyl-3′-fluoro-4′-[3-(hydroxymethyl)-1H-pyrrolo[2,3-b]pyridin-5-yl]biphenyl-2-sulfonamide] | 0.7 |
| Nc1cc(-c2ccc(-c3ccccc3S(=O)(=O)NC3(CO)CCCC3)cc2F)cc2cc[nH]c12 [Example 456, 4′-(7-Amino-1H-indol-5-yl)-3′-fluoro-N-[1-(hydroxymethyl)cyclopentyl]biphenyl-2-sulfonamide] | 2.6 |
| CNS(=O)(=O)c1ccccc1-c1ccc(-c2cnc3[nH]cc(CO)c3c2)c(F)c1 [Example 457, 3′-Fluoro-4′-[3-(hydroxymethyl)-1H-pyrrolo[2,3-b]pyridin-5-yl]-N-methylbiphenyl-2-sulfonamide] | 2.7 |
| CC(C)(C)NS(=O)(=O)c1ccccc1-c1ccc(-c2cc(N)c3[nH]ccc3c2)c(F)c1 [Example 458, 4′-(7-Amino-1H-indol-5-yl)-N-tert-butyl-3′-fluorobiphenyl-2-sulfonamide] | 4.2 |

| Structure (SMILES) | Ki [nM] |
| --- | --- |
| CC(C)(C)NS(=O)(=O)c1ccccc1-c1ccc(-c2cnc(N)cn2)c(F)c1F [Example 462, 4′-(5-Aminopyrazin-2-yl)-N-tert-butyl-2′,3′-difluorobipnenyl-2-sulfonamide] | 2.3 |
| Nc1cnc(-c2ccc(-c3ccccc3S(N)(=O)=O)c(F)c2F)cn1 [Example 464, 4′-(5-Aminopyrazin-2-yl)-2′,3′-difluorobiphenyl-2-sulfonamide] | 121 |
| CC(C)(C)NS(=O)(=O)c1ccccc1-c1ccc(-c2cnc(N)nc2)c(F)c1F [Example 466, 4′-(2-Aminopyrimidin-5-yl)-N-tert-butyl-2′,3′-difluorobipenyl-2-sulfonamide trifluoroacetic acid salt] | ~254 |
| Nc1cnc(-c2ccc(-c3ccc(OC(F)(F)F)cc3F)cc2F)cn1 [Example 467, 5-[2′,3-Difluoro-4′-(trifluoromethoxy)biphenyl-4-yl]pyrazin-2-amine] | 53.5 |
| Nc1cnc(-c2ccc(-c3ccccc3F)cc2F)cn1 [Example 468, 5-(2′,3-Difluorobiphenyl-4-yl)pyrazin-2-amine] | 332 |
| Nc1cnc(-c2ccc(-c3ccccc3Cl)cc2F)cn1 [Example 469, 5-(2′-Chloro-3-fluorobiphenyl-4-yl)pyrazin-2-amine] | 179 |
| Cc1ccccc1-c1ccc(-c2cnc(N)cn2)c(F)c1 [Example 470, 5-(3-Fluoro-2′-methylbiphenyl-4-yl)pyrazin-2-amine] | 397 |
| Nc1cnc(-c2ccc(-c3ccc(C(F)(F)F)cc3F)cc2F)cn1 [Example 471, 5-[2′,3-Difiuoro-4′-(trifluoromethyl)biphenyl-4-yl]pyrazin-2-amine] | 55.8 |
| Nc1cnc(-c2ccc(-c3ccccc3C(F)(F)F)cc2F)cn1 [Example 472, 5-[3-Fluoro-2′-(trifluoromethyl)biphenyl-4-yl]pyrazin-2-amine] | 136 |
| COc1ccccc1-c1ccc(-c2cnc(N)cn2)c(F)c1 [Example 473, 5-(3-Fluoro-2′-methoxybiphenyl-4-yl)pyrazin-2-amine] | 73 |
| Nc1cnc(-c2ccc(-c3ccccc3NS(=O)(=O)c3ccccc3)cc2F)cn1 [Example 479, N-[4′-(5-Aminopyrazin-2-yl)-3′-fluorobiphenyl-2-yl]benzenesulfonamide] | 7.7 |
| Nc1cnc(-c2ccc(-c3ccccc3OCC(=O)O)cc2F)cn1 [Example 481, {[4′-(5-Aminopyrazin-2-yl)-3′-fluorobiphenyl-2-yl]oxy}acetic acid] | 1910 |
| CC(=O)c1ccccc1-c1ccc(-c2cnc(N)cn2)c(F)c1 [Example 483, 1-[4′-(5-Aminopyrazin-2-yl)-3′-fluorobiphenyl-2-yl]ethanone] | ~354 |
| CS(=O)(=O)c1cc(F)ccc1-c1ccc(-c2cnc3[nH]ccc3n2)c(F)c1 [Example 489, 2-[3,4′-Difluoro-2′-(methylsulfonyl)biphenyl-4-yl]-5H-pyrrolo[2,3-b]pyrazine] | 19.6 |
| CC(C)(C)NC(=O)c1ccccc1-c1ccc(-c2cnc(N)cn2)c(F)c1 [Example 501, 4′-(5-Aminopyrazin-2-yl)-N-tert-butyl-3′-fluorobiphenyl-2-carboxamide] | 359 |
| Nc1cnc(-c2ccc(-c3ccc(C(F)(F)F)cc3C(=O)N3CCOCC3)cc2F)cn1 [Example 521, 5-[3-Fluoro-2′-(morpholin-4-ylcarbonyl)-4′-(trifluoromethyl)biphenyl-4-yl]pyrazin-2-amine] | 5.4 |
| Nc1nccc(Oc2ccccc2-c2ccc(-c3cnc4[nH]ccc4c3)c(F)c2)n1 [Example 523, 4-{[3′-Fluoro-4′-(1H-pyrrolo[2,3-b]pyridin-5-yl)biphenyl-2-yl]oxy}pyrimidin-2-amine] | 1.3 |
| Nc1ccnc(Oc2ccccc2-c2ccc(-c3cnc4[nH]ccc4c3)c(F)c2)n1 [Example 524, 2-{[3′-Fluoro-4′-(1H-pyrrolo[2,3-b]pyridin-5-yl)biphenyl-2-yl]oxy}pyrimidin-4-amine] | 0.7 |
| Nc1cnc(-c2ccc(-c3ccccc3Oc3ncccn3)cc2F)cn1 [Example 526, 5-[3-Fluoro-2′-(pyrimidin-2-yloxy)biphenyl-4-yl]pyrazin-2-amine] | 8.3 |
| Nc1cnc(-c2ccc(-c3ccccc3Oc3nccc(N)n3)cc2F)cn1 [Example 528, 2-{[4′-(5-Aminopyrazin-2-yl)-3′-fluorobiphenyl-2-yl]oxy}pyrimidin-4-amine] | 5.5 |

Same assay, conditions: human FLAP wild type, a calculated value of 0.000 indicates Ki less than 1 nM

| Structure (SMILES) | Ki [nM] |
| --- | --- |
| C[C@H](CO)NS(=O)(=O)c1ccccc1-c1ccc(-c2cnc3c(c2)OCCN3)c(F)c1 [Example 390, 4′-(3,4-Dihydro-2H-pyrido[3,2-b][1,4]oxazin-7-yl)-3′-fluoro-N-[(1R)-2-hydroxy-1-methylethyl]biphenyl-2-sulfonamide] | < 1 |
